Entries after “also recorded” stand apart in the source; their conditions may differ.
Experiments:
anti-coagulant activity = settings: cited from earlier work
[1] = tested on: CD2F1 mice irradiated with 9.25 Gy; experiment: Survival of CD2F1 mice after 9.25 Gy total body irradiation; format: in vivo; settings: 9.25 Gy TBI
Procedure: FIG. 1 provides a graph illustrating the survival of CD2F1 mice after total body irradiation: control group with no post-irradiation treatment (o); 0.1 mL PBS administered subcutaneously at 4 h post-irradiation (□); 0.1 mL PBS administered subcutaneously at 24, 36, and 48 h post-irradiation (Δ); 0.1 mL 25 mg/kg ODSH administered subcutaneously at 4, 16, and 28 h post-irradiation (▪); and 0.1 mL 25 mg/kg ODSH administered subcutaneously at 24, 36, and 48 h post-irradiation (▴).
CD2F1 male mice (Batch #7586 DOB Dec. 23, 2012) were weighed and animals outside ±20% of the mean weight were excluded. Mice that were within ±20% of the mean weight were randomized into groups of eight animals per box. There were 24 animals per treatment group. The animals received radiation at a dose rate of 0.6 Gy/min in the AFRRI Cobalt 60 gamma radiation facility. Animals were irradiated in Lucite boxes (8 animals/box) and arranged in an array (dosimetry Feb. 25, 2010) using plastic racks. Animals were restrained for no more than 60 min and returned to cages at the end of the irradiation period.
Post-TBI, animals were untreated (naïve) or treated subcutaneously with either phosphate buffered solution (PBS) or ODSH (2-O, 3-O desulfated heparin). […] The animals were monitored daily (twice a day when necessary) for 30 days and euthanized at the completion of the observational period.

Unfractionated heparin [reference compound]
anti-coagulant activity in the USP anti-coagulant assay (anti-coagulant activity): 165-190 U/mg

2-O, 3-O desulfated heparin [ODSH]
survival over the post-irradiation period compared with naïve and PBS-treated mice ([1]; 25 mg/kg s.c. post-irradiation (24, 36 and 48 h), 30-day observation, 25 mg/kg): greatest percentage survival; also recorded: improves survival
mice still alive at day 10 post-irradiation ([1]; 0.1 mL 25 mg/kg s.c. at 24, 36 and 48 h post-irradiation, day 10): 95%
anti-coagulant activity in the USP anti-coagulant assay (anti-coagulant activity): less than 9 U/mg
anti-coagulant activity in the USP anti-coagulant assay (example value) (anti-coagulant activity; e.g. value): 7±0.3 U

Reference: patent US20160287626A1, “METHODS OF TREATING AND PREVENTING RADIATION DAMAGE” (CANTEX PHARMACEUTICALS, INC., priority 2013, published 2016)
